Values quoted from earlier work, collected in article PMC9516332 (Frontiers in Oncology, 2022).
Read-outs that look alike come from different tables or passages of the source.

How the values were obtained:
Details in all cases: cited from earlier work
[1] = target: panel of 255 wild-type kinases (Homo sapiens, UniProt Q13177)
[2] = target: T1, panel of 255 wild-type kinases (Homo sapiens, UniProt Q13043)
T1 sequence (Q13043 1-487): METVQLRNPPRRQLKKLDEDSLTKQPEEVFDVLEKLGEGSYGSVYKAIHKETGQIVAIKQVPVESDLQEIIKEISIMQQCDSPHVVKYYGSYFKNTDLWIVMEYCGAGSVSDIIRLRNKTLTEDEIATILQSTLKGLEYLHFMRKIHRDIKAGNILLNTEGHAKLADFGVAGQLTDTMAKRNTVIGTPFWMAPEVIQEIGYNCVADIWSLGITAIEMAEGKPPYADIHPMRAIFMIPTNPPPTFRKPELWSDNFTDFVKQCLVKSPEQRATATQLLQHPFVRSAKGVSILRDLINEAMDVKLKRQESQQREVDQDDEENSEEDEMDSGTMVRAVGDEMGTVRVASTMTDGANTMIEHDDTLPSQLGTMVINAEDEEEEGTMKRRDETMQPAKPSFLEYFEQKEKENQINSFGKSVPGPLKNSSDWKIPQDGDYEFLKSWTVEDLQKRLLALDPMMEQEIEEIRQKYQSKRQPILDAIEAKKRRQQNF

[3] = target: panel of 255 wild-type kinases (Homo sapiens, UniProt P49841)
[4] = target: panel of 255 wild-type kinases (Homo sapiens, UniProt Q00535)
[5] = target: panel of 255 wild-type kinases (Homo sapiens, UniProt Q8IY84)
[6] = target: panel of 255 wild-type kinases (Homo sapiens, UniProt P54756)
[7] = target: panel of 255 wild-type kinases (Homo sapiens, UniProt Q9HBH9)
[8] = target: panel of 255 wild-type kinases (Homo sapiens, UniProt Q13555)
[9] = target: panel of 255 wild-type kinases (Homo sapiens, UniProt O94804)
[10] = target: panel of 255 wild-type kinases (Homo sapiens, UniProt Q04912)
[11] = target: T2, panel of 255 wild-type kinases (Homo sapiens, UniProt Q13188)
T2 sequence (Q13188 1-491): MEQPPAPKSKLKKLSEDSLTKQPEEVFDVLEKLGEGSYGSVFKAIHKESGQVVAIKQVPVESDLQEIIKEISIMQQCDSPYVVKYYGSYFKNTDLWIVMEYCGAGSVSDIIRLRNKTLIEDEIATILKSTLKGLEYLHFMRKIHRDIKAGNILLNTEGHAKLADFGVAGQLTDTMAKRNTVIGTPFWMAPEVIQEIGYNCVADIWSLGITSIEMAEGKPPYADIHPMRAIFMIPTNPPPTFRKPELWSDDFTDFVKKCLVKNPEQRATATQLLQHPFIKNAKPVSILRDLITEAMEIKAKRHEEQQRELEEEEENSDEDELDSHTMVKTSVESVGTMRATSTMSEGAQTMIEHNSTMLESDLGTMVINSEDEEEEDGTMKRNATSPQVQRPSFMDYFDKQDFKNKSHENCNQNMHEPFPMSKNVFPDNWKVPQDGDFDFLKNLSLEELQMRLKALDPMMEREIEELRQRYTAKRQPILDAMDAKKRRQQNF

[12] = target: panel of 255 wild-type kinases (Homo sapiens, UniProt P07947)
[13] = target: panel of 255 wild-type kinases (Homo sapiens, UniProt Q8IU85)
[14] = PAK2, 1 µmol/L single concentration, ref DOI: 10.1158/1535-7163.MCT-18-0877
[15] = MST1, 1 µmol/L single concentration, ref DOI: 10.1158/1535-7163.MCT-18-0877
[16] = kinase GSK3β, 1 µmol/L single concentration, ref DOI: 10.1158/1535-7163.MCT-18-0877
[17] = CDK5/p25 kinase assay, 1 µmol/L single concentration, ref DOI: 10.1158/1535-7163.MCT-18-0877
[18] = NIM1K, 1 µmol/L single concentration, ref DOI: 10.1158/1535-7163.MCT-18-0877
[19] = kinase EPHA5, 1 µmol/L single concentration, ref DOI: 10.1158/1535-7163.MCT-18-0877
[20] = MNK2, 1 µmol/L single concentration, ref DOI: 10.1158/1535-7163.MCT-18-0877
[21] = CaMK2γ kinase assay, 1 µmol/L single concentration, ref DOI: 10.1158/1535-7163.MCT-18-0877
[22] = kinase LOK, 1 µmol/L single concentration, ref DOI: 10.1158/1535-7163.MCT-18-0877
[23] = kinase RON, 1 µmol/L single concentration, ref DOI: 10.1158/1535-7163.MCT-18-0877
[24] = MST2, 1 µmol/L single concentration, ref DOI: 10.1158/1535-7163.MCT-18-0877
[25] = kinase YES, 1 µmol/L single concentration, ref DOI: 10.1158/1535-7163.MCT-18-0877
[26] = CaMK1δ kinase assay, 1 µmol/L single concentration, ref DOI: 10.1158/1535-7163.MCT-18-0877
[27] = PAK2, 1 µmol/L single concentration, ref DOI: 10.1371/journal.pone.0092146
[28] = MST1, 1 µmol/L single concentration, ref DOI: 10.1371/journal.pone.0092146
[29] = kinase GSK3β, 1 µmol/L single concentration, ref DOI: 10.1371/journal.pone.0092146
[30] = CDK5/p25 kinase assay, 1 µmol/L single concentration, ref DOI: 10.1371/journal.pone.0092146
[31] = kinase EPHA5, 1 µmol/L single concentration, ref DOI: 10.1371/journal.pone.0092146
[32] = MNK2, 1 µmol/L single concentration, ref DOI: 10.1371/journal.pone.0092146
[33] = CaMK2γ kinase assay, 1 µmol/L single concentration, ref DOI: 10.1371/journal.pone.0092146
[34] = kinase LOK, 1 µmol/L single concentration, ref DOI: 10.1371/journal.pone.0092146
[35] = MST2, 1 µmol/L single concentration, ref DOI: 10.1371/journal.pone.0092146
[36] = kinase YES, 1 µmol/L single concentration, ref DOI: 10.1371/journal.pone.0092146
[37] = CaMK1δ kinase assay, 1 µmol/L single concentration, ref DOI: 10.1371/journal.pone.0092146
[38] = kinase RON, 1 µmol/L single concentration, ref DOI: 10.1371/journal.pone.0092146

SMILES: CC#CC(=O)N1CCC[C@H]1c1nc(-c2ccc(C(=O)Nc3ccccn3)cc2)c2c(N)nccn12 [acalabrutinib]
- %-inhibition, PAK2 [1, 14]: -5%
- %-inhibition, MST1 [2, 15]: 4%
- %-inhibition at 1 µmol/L, GSK3β [3, 16]: -2.39%
- %-inhibition CDK5/p25 [4, 17]: -19%
- %-inhibition, NIM1K [5, 18]: -7%
- %-inhibition at 1 µmol/L, EPHA5 [6, 19]: -1.17%
- %-inhibition, MNK2 [7, 20]: 12%
- %-inhibition CaMK2γ [8, 21]: -1.85%
- %-inhibition at 1 µmol/L, LOK [9, 22]: 3.37%
- %-inhibition at 1 µmol/L, RON [10, 23]: 8%
- %-inhibition, MST2 [11, 24]: -3.46%
- %-inhibition at 1 µmol/L, YES [12, 25]: 22%
- %-inhibition CaMK1δ [13, 26]: -5%

SMILES: CCc1cc2c(cc1N1CCC(N3CCOCC3)CC1)C(C)(C)c1[nH]c3cc(C#N)ccc3c1C2=O [alectinib]
- %-inhibition, PAK2 [1, 14]: -29%
- %-inhibition, MST1 [2, 15]: 10%
- %-inhibition at 1 µmol/L, GSK3β [3, 16]: 2.37%
- %-inhibition CDK5/p25 [4, 17]: -12%
- %-inhibition, NIM1K [5, 18]: -2.13%
- %-inhibition at 1 µmol/L, EPHA5 [6, 19]: 2.67%
- %-inhibition, MNK2 [7, 20]: 13%
- %-inhibition CaMK2γ [8, 21]: 6%
- %-inhibition at 1 µmol/L, RON [10, 23]: 10%
- %-inhibition, MST2 [11, 24]: -1.42%
- %-inhibition at 1 µmol/L, YES [12, 25]: 44%
- %-inhibition CaMK1δ [13, 26]: -3.42%

SMILES: COc1cc(N2CCC(N3CCN(C)CC3)CC2)ccc1Nc1ncc(Cl)c(Nc2ccccc2P(C)(C)=O)n1 [brigatinib]
- %-inhibition, PAK2 [1]: 16%
- %-inhibition, MST1 [2]: 71%
- %-inhibition at 1 µmol/L, GSK3β [3]: -1.81%
- %-inhibition CDK5/p25 [4]: 40%
- %-inhibition, NIM1K [5]: 3%
- %-inhibition at 1 µmol/L, EPHA5 [6]: 4%
- %-inhibition, MNK2 [7]: 66%
- %-inhibition CaMK2γ [8]: 96%
- %-inhibition at 1 µmol/L, LOK [9]: 96%
- %-inhibition at 1 µmol/L, RON [10]: 18%
- %-inhibition, MST2 [11]: 20%
- %-inhibition at 1 µmol/L, YES [12]: 102%
- %-inhibition CaMK1δ [13]: 62%

SMILES: C[C@@H](Oc1cc(-c2cnn(C3CCNCC3)c2)cnc1N)c1c(Cl)ccc(F)c1Cl [crizotinib]
- %-inhibition, PAK2 [1, 27]: 5%
- %-inhibition, MST1 [2, 28]: 83%
- %-inhibition at 1 µmol/L, GSK3β [3, 29]: -2.11%
- %-inhibition CDK5/p25 [4, 30]: -8%
- %-inhibition at 1 µmol/L, EPHA5 [6, 31]: 71%
- %-inhibition, MNK2 [7, 32]: 2%
- %-inhibition CaMK2γ [8, 33]: -10%
- %-inhibition at 1 µmol/L, LOK [9, 34]: 98%
- %-inhibition, MST2 [11, 35]: 13%
- %-inhibition at 1 µmol/L, YES [12, 36]: 65%
- %-inhibition CaMK1δ [13, 37]: -4%

SMILES: CC(C)(C)c1nc(-c2cccc(NS(=O)(=O)c3c(F)cccc3F)c2F)c(-c2ccnc(N)n2)s1 [dabrafenib]
- %-inhibition CDK5/p25 [4, 30]: 22%
- %-inhibition CaMK2γ [8, 33]: -5.47%
- %-inhibition at 1 µmol/L, RON [10, 38]: 37%

SMILES: C=CC(=O)N1CCC[C@@H](n2nc(-c3ccc(Oc4ccccc4)cc3)c3c(N)ncnc32)C1 [ibrutinib]
- %-inhibition, PAK2 [1, 14]: -6%
- %-inhibition, MST1 [2, 15]: 4%
- %-inhibition at 1 µmol/L, GSK3β [3, 16]: -4%
- %-inhibition CDK5/p25 [4, 17]: -5%
- %-inhibition, NIM1K [5, 18]: -2.33%
- %-inhibition at 1 µmol/L, EPHA5 [6, 19]: 26%
- %-inhibition, MNK2 [7, 20]: 20%
- %-inhibition CaMK2γ [8, 21]: -1.83%
- %-inhibition at 1 µmol/L, LOK [9, 22]: 24%
- %-inhibition at 1 µmol/L, RON [10, 23]: 7%
- %-inhibition, MST2 [11, 24]: 17%
- %-inhibition CaMK1δ [13, 26]: 5%

SMILES: CO[C@@H]1[C@H](N(C)C(=O)c2ccccc2)C[C@H]2O[C@]1(C)n1c3ccccc3c3c4c(c5c6ccccc6n2c5c31)C(=O)NC4 [midostaurin]
- %-inhibition, NIM1K [5, 18]: 1.15%
- %-inhibition at 1 µmol/L, EPHA5 [6, 19]: 8%
- %-inhibition, MNK2 [7, 20]: 80%
- %-inhibition at 1 µmol/L, LOK [9, 22]: 98%
- %-inhibition at 1 µmol/L, RON [10, 23]: 22%
- %-inhibition, MST2 [11, 24]: 98%
- %-inhibition at 1 µmol/L, YES [12, 25]: 89%

SMILES: C=CC(=O)Nc1cc(Nc2nccc(-c3cn(C)c4ccccc34)n2)c(OC)cc1N(C)CCN(C)C [osimertinib]
- %-inhibition, PAK2 [1, 14]: -14%
- %-inhibition, MST1 [2, 15]: 1.52%
- %-inhibition at 1 µmol/L, GSK3β [3, 16]: -4%
- %-inhibition CDK5/p25 [4, 17]: -0.719%
- %-inhibition, NIM1K [5, 18]: -10%
- %-inhibition at 1 µmol/L, EPHA5 [6, 19]: -0.189%
- %-inhibition, MNK2 [7, 20]: 97%
- %-inhibition CaMK2γ [8, 21]: 4.25%
- %-inhibition at 1 µmol/L, LOK [9, 22]: 42%
- %-inhibition at 1 µmol/L, RON [10, 23]: 5.69%
- %-inhibition at 1 µmol/L, YES [12, 25]: 13%
- %-inhibition CaMK1δ [13, 26]: 9%

SMILES: CC(=O)Nc1cccc(-n2c(=O)n(C3CC3)c(=O)c3c(Nc4ccc(I)cc4F)n(C)c(=O)c(C)c32)c1 [trametinib]
- %-inhibition, PAK2 [1, 27]: -9%
- %-inhibition, MST1 [2, 28]: -3.74%
- %-inhibition at 1 µmol/L, GSK3β [3, 29]: -15%
- %-inhibition CDK5/p25 [4, 30]: 19%
- %-inhibition at 1 µmol/L, EPHA5 [6, 31]: -2.67%
- %-inhibition, MNK2 [7, 32]: -11%
- %-inhibition CaMK2γ [8, 33]: 7%
- %-inhibition at 1 µmol/L, LOK [9, 34]: 12%
- %-inhibition at 1 µmol/L, RON [10, 38]: -6.44%
- %-inhibition, MST2 [11, 35]: -3%
- %-inhibition at 1 µmol/L, YES [12, 36]: -1.63%
- %-inhibition CaMK1δ [13, 37]: -3.3%

SMILES: CCCS(=O)(=O)Nc1ccc(F)c(C(=O)c2c[nH]c3ncc(-c4ccc(Cl)cc4)cc23)c1F [vemurafenib]
- %-inhibition, PAK2 [1, 27]: 13%
- %-inhibition, MST1 [2, 28]: 51%
- %-inhibition at 1 µmol/L, GSK3β [3, 29]: 8%
- %-inhibition CDK5/p25 [4, 30]: 5%
- %-inhibition at 1 µmol/L, EPHA5 [6, 31]: 14%
- %-inhibition, MNK2 [7, 32]: 27%
- %-inhibition CaMK2γ [8, 33]: -10%
- %-inhibition at 1 µmol/L, LOK [9, 34]: -1%
- %-inhibition at 1 µmol/L, RON [10, 38]: -2%
- %-inhibition, MST2 [11, 35]: 24%
- %-inhibition at 1 µmol/L, YES [12, 36]: 74%
- %-inhibition CaMK1δ [13, 37]: -7%
